How the values were obtained:
Type in all cases: in vivo
[1] = test system: spring barley (Hordeum vulgare); test: Test D postemergence; settings: scale 0 to 100
Excerpt: Seeds of plant species selected from bluegrass (annual bluegrass, Poa annua), blackgrass (Alopecurus myosuroides), canarygrass (Phalaris minor), chickweed (common chickweed, Stellaria media), cutleaf geranium (Geranium dissectum), galium (catchweed bedstraw, Galium aparine), downy bromegrass (Bromus tectorum), field poppy (Papaver rhoeas), field violet (Viola arvensis), green foxtail (Setaria viridis), deadnettle (henbit deadnettle, Lamium amplexicaule), Italian ryegrass (Lolium multiflorum), kochia (Kochia scoparia), lambsquarters (Chenopodium album), oilseed rape (Brassica napus), pigweed (Amaranthus retroflexus), chamomile (scentless chamomile, Matricaria inodora), Russian thistle (Salsola kali), speedwell (bird's-eye speedwell, Veronica persica), spring barley (Hordeum vulgare), spring wheat (Triticum aestivum), wild buckwheat (Polygonum convolvulus), wild mustard (Sinapis arvensis), wild oat (Avenafatua), wild radish (Raphanus raphanistrum), windgrass (Apera spica-venti), winter barley (Hordeum vulgare), and winter wheat (Triticum aestivum) were planted into a silt loam soil and treated preemergence with test chemicals formulated in a non-phytotoxic solvent mixture which included a surfactant.
At the same time, these species were planted in pots containing Redi-Earth® planting medium (Scotts Company, 14111 Scottslawn Road, Marysville, Ohio 43041) comprising spaghnum peat moss, vermiculite, wetting agent and starter nutrients and treated with postemergence applications of the test chemicals formulated in the same manner. Plants ranged in height from 2 to 18 cm (1- to 4-leaf stage). Treated plants and controls were maintained in a controlled growth environment for 14 to 21 days after which time all species were compared to controls and visually evaluated. Plant response ratings, summarized in Table D, are based on a scale of 0 to 100 where 0 is no effect and 100 is complete control. A dash (-) response means no test result.

corn (Zea mays) = test: Test A preemergence; settings: 0 to 100 scale
Method in brief: (§1)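 Scoring: eye-based comparison with untreated controls, 0 for no effect through 100 for complete control, at about day 10. Treatments: directed soil spray preemergence; foliar spray postemergence on 2–10 cm plants at the one- to two-leaf stage. Medium: loam soil with sand.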

[2] = test system: velvetleaf (Abutilon theophrasti); test: Test A preemergence; settings: for Plant response rating, Velvetleaf: 0 to 100 scale; for Velvetleaf plant response rating: 0 to 100 scale (0 no effect, 100 complete control)
Method in brief: as §1

[3] = test system: morningglory (Ipomoea spp.); test: Test A preemergence; settings: for Plant response rating, Morningglory: 0 to 100 scale; for Morningglory plant response rating: 0 to 100 scale (0 no effect, 100 complete control)
Method in brief: as §1

[4] = test system: wheat (Triticum aestivum); test: Test A preemergence; settings: for Plant response rating, Wheat: 0 to 100 scale; for Wheat plant response rating: 0 to 100 scale (0 no effect, 100 complete control)
Method in brief: as §1

[5] = test system: large (Lg) crabgrass (Digitaria sanguinalis); test: Test A preemergence; settings: for Plant response rating, Crabgrass, Large: 0 to 100 scale; for Crabgrass, Large plant response rating: 0 to 100 scale (0 no effect, 100 complete control)
Method in brief: as §1

[6] = test system: spring wheat (Triticum aestivum); test: Test D preemergence; settings: scale 0 to 100
Method in brief: (§2)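 Ratings of 0–100 reflect visual comparison with control plants at 14 to 21 days. For preemergence, compound was sprayed on silt loam just after sowing; for postemergence, on plants 2 to 18 cm in height.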

[7] = test system: wild radish (Raphanus raphanistrum); test: Test D preemergence; settings: scale 0 to 100
Method in brief: as §2

[8] = test system: Italian ryegrass (Lolium multiflorum); test: Test D preemergence; settings: scale 0 to 100
Method in brief: as §2

[9] = test system: chamomile (scentless chamomile, Matricaria inodora); test: Test D preemergence; settings: scale 0 to 100
Method in brief: as §2

[10] = test system: speedwell (bird's-eye speedwell, Veronica persica); test: Test D preemergence; settings: scale 0 to 100
Method in brief: as §2

[11] = test system: canarygrass (Phalaris minor); test: Test D preemergence; settings: scale 0 to 100
Method in brief: as §2

[12] = test system: deadnettle (henbit deadnettle, Lamium amplexicaule); test: Test D preemergence; settings: scale 0 to 100
Method in brief: as §2

kochia (Kochia scoparia) = test: Test D preemergence; settings: scale 0 to 100
Method in brief: as §2

[13] = test system: blackgrass (Alopecurus myosuroides); test: Test D preemergence; settings: scale 0 to 100
Method in brief: as §2

[14] = test system: winter wheat (Triticum aestivum); test: Test D preemergence; settings: scale 0 to 100
Method in brief: as §2

[15] = test system: galium (catchweed bedstraw, Galium aparine); test: Test D preemergence; settings: scale 0 to 100
Method in brief: as §2

[16] = test system: wild mustard (Sinapis arvensis); test: Test D preemergence; settings: scale 0 to 100
Method in brief: as §2

N#Cc1cccc(Oc2ncc(Cl)cn2)c1Oc1ncc(Cl)cn1 [Compound 3, 2,3-bis[(5-chloro-2-pyrimidinyl)oxy]benzonitrile]
5: Plant response rating, Barley, Spring ([1]; 16 g ai/ha) | Plant response rating, Canarygrass ([11]; 31 g ai/ha) | Plant response rating, Wheat, Winter ([14]; 62 g ai/ha)
15: Plant response rating, Barley, Spring ([1]; 62 g ai/ha) | Plant response rating, Mustard, Wild ([16]; 16 g ai/ha)
0: Plant response rating, Wheat, Spring ([6]; 16 g ai/ha) | Plant response rating, Wheat, Spring ([6]; 31 g ai/ha) | Plant response rating, Ryegrass, Italian ([8]; 16 g ai/ha) | Plant response rating, Ryegrass, Italian ([8]; 31 g ai/ha) | Plant response rating, Canarygrass ([11]; 16 g ai/ha) | Plant response rating, Blackgrass ([13]; 16 g ai/ha) | Plant response rating, Wheat, Winter ([14]; 16 g ai/ha) | Plant response rating, Wheat, Winter ([14]; 31 g ai/ha)
60: Plant response rating, Corn (corn (Zea mays); 125 g ai/ha) | Plant response rating, Mustard, Wild ([16]; 31 g ai/ha)
100: Plant response rating, Velvetleaf ([2]; 125 g ai/ha) | Plant response rating, Velvetleaf ([2]; 500 g ai/ha) | Plant response rating, Morningglory ([3]; 125 g ai/ha) | Plant response rating, Morningglory ([3]; 500 g ai/ha) | Plant response rating, Crabgrass, Large ([5]; 125 g ai/ha) | Plant response rating, Crabgrass, Large ([5]; 500 g ai/ha) | Plant response rating, Radish, Wild ([7]; 62 g ai/ha) | Plant response rating, Radish, Wild ([7]; 125 g ai/ha) | Plant response rating, Speedwell ([10]; 31 g ai/ha) | Plant response rating, Speedwell ([10]; 62 g ai/ha) | Plant response rating, Speedwell ([10]; 125 g ai/ha) | Plant response rating, Deadnettle ([12]; 62 g ai/ha) | Plant response rating, Deadnettle ([12]; 125 g ai/ha) | Plant response rating, Kochia (kochia (Kochia scoparia); 16 g ai/ha) | Plant response rating, Kochia (kochia (Kochia scoparia); 31 g ai/ha) | Plant response rating, Kochia (kochia (Kochia scoparia); 62 g ai/ha) | Plant response rating, Kochia (kochia (Kochia scoparia); 125 g ai/ha) | Plant response rating, Galium ([15]; 31 g ai/ha) | Plant response rating, Galium ([15]; 62 g ai/ha) | Plant response rating, Galium ([15]; 125 g ai/ha) | Plant response rating, Mustard, Wild ([16]; 125 g ai/ha)
35: Plant response rating, Chamomile ([9]; 62 g ai/ha) | Plant response rating, Blackgrass ([13]; 62 g ai/ha)
80: Plant response rating, Wheat ([4]; 500 g ai/ha) | Plant response rating, Radish, Wild ([7]; 31 g ai/ha) | Plant response rating, Canarygrass ([11]; 125 g ai/ha)
85: Plant response rating, Chamomile ([9]; 125 g ai/ha)
40: Plant response rating, Ryegrass, Italian ([8]; 125 g ai/ha)
95: Plant response rating, Deadnettle ([12]; 31 g ai/ha) | Plant response rating, Mustard, Wild ([16]; 62 g ai/ha)
70: Plant response rating, Corn (corn (Zea mays); 500 g ai/ha) | Plant response rating, Speedwell ([10]; 16 g ai/ha) | Plant response rating, Deadnettle ([12]; 16 g ai/ha) | Plant response rating, Blackgrass ([13]; 125 g ai/ha)
50: Plant response rating, Ryegrass, Italian ([8]; 62 g ai/ha)
20: Plant response rating, Barley, Spring ([1]; 125 g ai/ha) | Plant response rating, Wheat, Spring ([6]; 125 g ai/ha) | Plant response rating, Chamomile ([9]; 31 g ai/ha) | Plant response rating, Canarygrass ([11]; 62 g ai/ha) | Plant response rating, Galium ([15]; 16 g ai/ha)
30: Plant response rating, Wheat ([4]; 125 g ai/ha) | Plant response rating, Radish, Wild ([7]; 16 g ai/ha)
10: Plant response rating, Barley, Spring ([1]; 31 g ai/ha) | Plant response rating, Wheat, Spring ([6]; 62 g ai/ha) | Plant response rating, Chamomile ([9]; 16 g ai/ha) | Plant response rating, Blackgrass ([13]; 31 g ai/ha) | Plant response rating, Wheat, Winter ([14]; 125 g ai/ha)

Clc1cnc(Oc2cccc(Br)c2Oc2ncc(Cl)cn2)nc1 [Compound 19, 2,2′-[[3-bromo-1,2-phenylene]bis(oxy)]bis[5-chloropyrimidine]]
60: Plant response rating, Corn (corn (Zea mays); 500 g ai/ha)
10: Plant response rating, Corn (corn (Zea mays); 125 g ai/ha)
40: Wheat plant response rating ([4]; 125 g ai/ha)
80: Velvetleaf plant response rating ([2]; 125 g ai/ha)
70: Morningglory plant response rating ([3]; 125 g ai/ha) | Plant response rating, Wheat ([4]; 500 g ai/ha)
90: Plant response rating, Velvetleaf ([2]; 500 g ai/ha)
100: Plant response rating, Morningglory ([3]; 500 g ai/ha) | Crabgrass, Large plant response rating ([5]; 125 g ai/ha) | Plant response rating, Crabgrass, Large ([5]; 500 g ai/ha)

Fc1cccc(Oc2ncc(Cl)cn2)c1Oc1ncc(Cl)cn1 [Compound 21, 2,2′-[[3-fluoro-1,2-phenylene]bis(oxy)]bis[5-chloropyrimidine]]
80: Velvetleaf plant response rating ([2]; 125 g ai/ha)
90: Plant response rating, Velvetleaf ([2]; 500 g ai/ha) | Morningglory plant response rating ([3]; 125 g ai/ha)
40: Plant response rating, Corn (corn (Zea mays); 125 g ai/ha)
100: Plant response rating, Morningglory ([3]; 500 g ai/ha) | Crabgrass, Large plant response rating ([5]; 125 g ai/ha) | Plant response rating, Crabgrass, Large ([5]; 500 g ai/ha)
60: Plant response rating, Corn (corn (Zea mays); 500 g ai/ha) | Wheat plant response rating ([4]; 125 g ai/ha) | Plant response rating, Wheat ([4]; 500 g ai/ha)

FC(F)(F)c1cnc(Oc2c(Br)cccc2Oc2ncc(Cl)cn2)nc1 [Compound 24]
85: Plant response rating, Galium ([15]; 62 g ai/ha)
55: Plant response rating, Chamomile ([9]; 16 g ai/ha) | Plant response rating, Blackgrass ([13]; 125 g ai/ha) | Plant response rating, Mustard, Wild ([16]; 62 g ai/ha)
25: Plant response rating, Barley, Spring ([1]; 125 g ai/ha) | Plant response rating, Ryegrass, Italian ([8]; 62 g ai/ha) | Plant response rating, Canarygrass ([11]; 16 g ai/ha) | Plant response rating, Kochia (kochia (Kochia scoparia); 31 g ai/ha) | Plant response rating, Blackgrass ([13]; 31 g ai/ha) | Plant response rating, Galium ([15]; 31 g ai/ha)
15: Plant response rating, Barley, Spring ([1]; 16 g ai/ha) | Plant response rating, Ryegrass, Italian ([8]; 31 g ai/ha) | Plant response rating, Blackgrass ([13]; 16 g ai/ha) | Plant response rating, Mustard, Wild ([16]; 16 g ai/ha)
45: Plant response rating, Radish, Wild ([7]; 62 g ai/ha) | Plant response rating, Canarygrass ([11]; 125 g ai/ha)
65: Plant response rating, Ryegrass, Italian ([8]; 125 g ai/ha)
100: Plant response rating, Chamomile ([9]; 31 g ai/ha) | Plant response rating, Chamomile ([9]; 62 g ai/ha) | Plant response rating, Chamomile ([9]; 125 g ai/ha) | Plant response rating, Speedwell ([10]; 31 g ai/ha) | Plant response rating, Speedwell ([10]; 62 g ai/ha) | Plant response rating, Speedwell ([10]; 125 g ai/ha) | Plant response rating, Deadnettle ([12]; 62 g ai/ha) | Plant response rating, Deadnettle ([12]; 125 g ai/ha) | Plant response rating, Kochia (kochia (Kochia scoparia); 125 g ai/ha) | Plant response rating, Mustard, Wild ([16]; 125 g ai/ha)
70: Plant response rating, Radish, Wild ([7]; 125 g ai/ha) | Plant response rating, Galium ([15]; 125 g ai/ha)
0: Plant response rating, Wheat, Spring ([6]; 16 g ai/ha) | Plant response rating, Wheat, Spring ([6]; 31 g ai/ha) | Plant response rating, Wheat, Spring ([6]; 62 g ai/ha) | Plant response rating, Radish, Wild ([7]; 16 g ai/ha) | Plant response rating, Kochia (kochia (Kochia scoparia); 16 g ai/ha) | Plant response rating, Wheat, Winter ([14]; 16 g ai/ha) | Plant response rating, Wheat, Winter ([14]; 31 g ai/ha) | Plant response rating, Wheat, Winter ([14]; 62 g ai/ha) | Plant response rating, Galium ([15]; 16 g ai/ha)
60: Plant response rating, Deadnettle ([12]; 31 g ai/ha) | Plant response rating, Kochia (kochia (Kochia scoparia); 62 g ai/ha)
10: Plant response rating, Ryegrass, Italian ([8]; 16 g ai/ha) | Plant response rating, Wheat, Winter ([14]; 125 g ai/ha)
35: Plant response rating, Speedwell ([10]; 16 g ai/ha) | Plant response rating, Canarygrass ([11]; 62 g ai/ha) | Plant response rating, Blackgrass ([13]; 62 g ai/ha) | Plant response rating, Mustard, Wild ([16]; 31 g ai/ha)
20: Plant response rating, Barley, Spring ([1]; 31 g ai/ha) | Plant response rating, Barley, Spring ([1]; 62 g ai/ha) | Plant response rating, Radish, Wild ([7]; 31 g ai/ha)
30: Plant response rating, Canarygrass ([11]; 31 g ai/ha) | Plant response rating, Deadnettle ([12]; 16 g ai/ha)
40: Plant response rating, Wheat, Spring ([6]; 125 g ai/ha)
